Source: patent US6476025B1, “Phenylphennanthridines with PDE-IV inhibiting activity” (Altana Pharma AG, priority 1999, dated 2002)

Legend:
PDE4 = assay: Inhibition of PDE4 activity (method of Bauer and Schwabe, adapted to microtiter plates); format: biochemical; conditions: inhibitory concentration as −log IC50 (mol/l)
Description: The activity test was carried out according to the method of Bauer and Schwabe, which was adapted to microtiter plates (Naunyn-Schmiedeberg's Arch. Pharmacol. 1980, 311, 193-198). The PDE reaction takes place in the first step here. In a second step, the resulting 5′-nucleotide is cleaved by a 5′-nucleotidase of the snake venom of Crotalus atrox to the uncharged nucleoside. In the third step, the nucleoside is separated from the remaining charged substrate on ion-exchange columns. The columns are eluted directly into minivials, into which 2 ml of scintillator fluid are additionally added, for counting using 2 ml of 30 mM ammonium formate (pH 6.0).
The inhibitory values determined for the compounds according to the invention [inhibitory concentration as −log Ic50 (mol/l)] follow from the following Table A, in which the numbers of the compounds correspond to the numbers of the examples.

| SMILES | melting point [°C] | −log IC50, inhibition of the PDE4 activity (PDE4) |
| --- | --- | --- |
| COc1cc2c(cc1OC)C1CCCCC1N=C2c1cccc(C(=O)N2CCCCC2)c1 (single isomer, unassigned; (-)) [Compound 17, (−)-cis-8,9-Dimethoxy-[3-(piperidin-1-ylcarbonyl)phenyl]-1,2,3,4,4a,10b-hexahydrophenanthridine] | 182 to 185 | 8.13 |
| COc1cc2c(cc1OC)[C@@H]1CCCC[C@@H]1N=C2c1ccc(C(=O)CC2CC2)cc1 [Compound 24, (−)-cis-8,9-Dimethoxy-6-[4-cyclopropylmethylcarbonylphenyl]-1,2,3,4,4a,10b-hexahydrophenanthridine] | 93 to 98 | 7.48 |
| COc1cccc(C(=O)c2ccc(C3=N[C@H]4CCCC[C@H]4c4cc(OC)c(OC)cc43)cc2)c1 [Compound 30, (−)-cis-8,9-Dimethoxy-6-[4-(3-methoxybenzoyl)phenyl]-1,2,3,4,4a,10b-hexahydrophenanthridine] | 146 to 148 | 7.94 |
| COc1cc2c(cc1OC)[C@@H]1CCCC[C@@H]1N=C2c1ccc(C(=O)CC(C)C)cc1 [Compound 23, (−)-cis-8,9-Dimethoxy-6-[4-(3-methylbutyryl)phenyl]-1,2,3,4,4a,10b-hexahydrophenanthridine] | 114 to 117 | 7.5 |
| COc1cc2c(cc1OC)C1CCCCC1N=C2c1ccc(OC)c(N2C(=O)CCC2=O)c1 (single isomer, unassigned; (-)) [Compound 48, (−)-cis-8,9-Dimethoxy-6-{[3-(2,5-dioxopyrrolidin-1-yl)-4-methoxy]phenyl}-1,2,3,4,4a,10b-hexahydrophenanthridine] | 168 to 177 | 7.67 |
| COc1cc2c(cc1OC)[C@@H]1CCCC[C@@H]1N=C2c1cccc(C(C)=O)c1 [Compound 49, (−)cis-8,9-Dimethoxy-6-(3-acetylphenyl)-1,2,3,4,4a,10b-hexahydrophenanthridine] | 112.5 to 114 | 7.17 |
| CCOc1cc2c(cc1OC)C(c1ccc(CCl)cc1)=N[C@H]1CCCC[C@@H]21 (relative stereo) [Compound 19, cis-6-(4-Chloromethylphenyl)-9-ethoxy-8-methoxy-1,2,3,4,4a,10b-hexahydrophenanthridine] | 151 to 153 | 8.59 |
| COc1cc2c(cc1OC)[C@@H]1CCCC[C@@H]1N=C2c1ccc(OC)c(N2CCCC2=O)c1 [Compound 47, (−)-cis-8,9-Dimethoxy-6-[4-methoxy-3-(2-oxopyrrolidin-1-yl)phenyl]-1,2,3,4,4a,10b-hexahydrophenanthridine] | 147 to 152 | 7.33 |
| CCOc1cc2c(cc1OC)C(c1ccc(OCC)c(OCC3CC3)c1)=NC1CCCCC21 (single isomer, unassigned; (-)) [Compound 39, (−)-cis-9-Ethoxy-8-methoxy-6-[(3-cyclopropylmethoxy-4-ethoxy)phenyl]-1,2,3,4,4a,10b-hexahydrophenanthridine] | 102 to 105 | 8.87 |
| COC(=O)Cc1ccc(C2=N[C@H]3CCCC[C@H]3c3cc(OC)c(OC)cc32)cc1 [Compound 18, (−)-cis-8,9-Dimethoxy-6-(4-methoxycarbonylmethylphenyl)-1,2,3,4,4a,10b-hexahydrophenanthridine] | 124 to 125 | 7.49 |
| COc1cc2c(cc1OC)[C@@H]1CCCC[C@@H]1N=C2c1cccc(OCc2ccccc2)c1 [Compound 7, (−)-cis-8,9-Dimethoxy-6-(3-benzyloxyphenyl)-1,2,3,4,4a,10b-hexahydrophenanthridine] | 118 to 120 | 8.40 |
| COc1cc2c(cc1OC)[C@@H]1CCCC[C@@H]1N=C2c1cccc(OCC2CC2)c1 [Compound 35, (−)-cis-8,9-Dimethoxy-6-(3-cyclopropylmethoxyphenyl)-1,2,3,4,4a,10b-hexahydrophenanthridine] | 54 to 61 | 7.43 |
| COc1cc2c(cc1OC)[C@@H]1CCCC[C@@H]1N=C2c1ccc(Oc2ccccc2)cc1 [Compound 4, (−)-cis-8,9-Dimethoxy-6-(4-phenoxyphenyl)-1,2,3,4,4a,10b-hexahydrophenanthridine] | 110 to 115 | 7.52 |
| COc1cc2c(cc1OC)[C@@H]1CCCC[C@@H]1N=C2c1ccc(OC)c(OC2CCCC2)c1 [Compound 9, (−)-cis-6-(3-Cyclopentyloxy-4-methoxyphenyl)-8,9-dimethoxy-1,2,3,4,4a,10b-hexahydrophenanthridine] | – | 7.79 |
| COc1cc2c(cc1OC)C1CCCCC1N=C2c1ccc(CN2CCN(C)CC2)cc1 (single isomer, unassigned; (-)) [Compound 22, (−)-cis-8,9-Dimethoxy-6-[4-(4-methylpiperazin-1-ylmethyl)phenyl]-1,2,3,4,4a,10b-hexphenanthridine] | – | 7.27 |
| COc1cc2c(cc1OC)[C@@H]1CCCC[C@@H]1N=C2c1cccc(OCCc2ccccc2)c1 [Compound 8, (−)-cis-8,9-Dimethoxy-6-(3-phenethyloxyphenyl)-1,2,3,4,4a,10b-hexahydrophenanthridine] | – | 8.41 |
| COc1cc2c(cc1OC)[C@@H]1CCCC[C@@H]1N=C2c1cc(OCC2CC2)cc(OCC2CC2)c1 [Compound 41, (−)-cis8,9-Dimethoxy-6-[3,5-bis(cyclopropylmethoxy)phenyl]-1,2,3,4,4a,10b-hexahydrophenanthridine] | – | 8.03 |
